Laboratory results as given in ChEMBL document CHEMBL3102694, “Synthesis of C11-Desmethoxy Soraphen A1α: A natural product analog that inhibits acetyl-CoA carboxylase” (ACS Med Chem Lett, 2013).
The source made the active and inactive calls. The rule behind the calls is not given here.

How the values were obtained:
[1] = species: Mus musculus; experiment: Inhibition of acetyl-CoA carboxylase in mouse SCR1163 cells assessed as reduction in [14C]-acetate incorporation into fatty acid at 0.1 to 1 uM after 4 hrs; format: cell-based
[2] = species: Mus musculus; experiment: Inhibition of acetyl-CoA carboxylase in mouse SCR1693 cells assessed as reduction in [14C]-acetate incorporation into fatty acid at 0.1 to 1 uM after 4 hrs; format: cell-based
[3] = species: Mus musculus; experiment: Cytotoxicity against mouse SCR1163 cells at 1.25 to 10 uM after 24 to 72 hrs by MTT assay; format: functional, cell-based

| SMILES | inhibition [1] | inhibition [2] | Activity [3] |
| --- | --- | --- | --- |
| CO[C@H]1CCCC[C@@H](c2ccccc2)OC(=O)[C@@H](C)[C@@]2(O)O[C@H]([C@@H](C)[C@H](O)[C@H]2OC)[C@@H](C)/C=C/[C@H]1OC | Active | Active | – |
| CO[C@@H]1C/C=C/[C@H](C)[C@@H]2O[C@](O)([C@H](C)C(=O)O[C@H](c3ccccc3)CCCC1)[C@H](OC)[C@@H](O)[C@@H]2C | 59% | 48% | Active |
